Measured values taken from patent US4232150A, “Oligosaccharide precursors to substituted O-α-D and O-β-D-multigalactopyranosyl and glucopyranosyl 1→4 and 1→6 galactopyranosyl 1→6α-D-glucopyranoses” (American Cyanamid Company, priority 1979, dated 1980).
Structures can show the parent of a compound that is named as a salt.

Assays:
Conditions in all cases: serial twofold dilution assay; higher well number indicates higher activity
[1] = biological target: T1, activated human C1 (Homo sapiens, UniProt P09871); assay: Test Code 026 (C1 inhibitor); type: biochemical
T1 construct: functional test of fluid-phase human C2 destruction in presence of C4
Source text: (§1) An active inhibitor protects C2 from C1 and C4; (ii) Test Cod3 035 (3-C9 inhibitor)--This test determines the ability of the late components of human complement (C3-C9) to lyse EAC 142 in the presence of appropriate dilutions of the test compound. An active inhibitor protects EAC 142 from lysis by human C3-C9; (iii) Test Code 036 (C-Shunt inhibitor)--In this test human erythrocytes rendered fragile are lysed in autologous serum via the shunt pathway activated by cobra venom factor in the presence of appropriate dilutions of the test compound. Inhibition of the shunt pathway results in failure of lysis; (iv) Forssman Vasculitis Test--Here, the well known complement dependent lesion, Forssman vasculitis, is produced in guinea pigs by intradermal injection of rabbit anti-Forssman antiserum. The lesion is measured in terms of diameter, edema and hemorrhage and the extent to which a combined index of these is inhibited by prior intraperitoneal injection of the test compound at 200 mg/kg is then reported, unless otherwise stated; (v) Forssman Shock Test--Lethal shock is produced in guinea pigs by an i.v. injection of anti-Forssman antiserum and the harmonic mean death time of treated guinea pigs is compared with that of simultaneous controls; (vi) Complement Level Reduction Test--In this test, the above dosed guinea pigs, or others, are bled for serum and the complement level is determined in undiluted serum by the capillary tube method of U.S. Pat. No. 3,876,376 and compared to undosed control guinea pigs; (vii) Cap 50 Test--Here, appropriate amounts of the test compound are added to a pool of guinea pig serum in vitro, after which the undiluted serum capillary tube assay referred to above is run. The concentration of compound inhibiting 50% is reported;
(§2) **Activity in wells, a serial dilution assay; higher well number indicate
(§3) higher activity. The serial dilutions are twofold

[2] = system: shunt pathway activated by cobra venom factor; assay: Test Code 036 (C-Shunt inhibitor), lysis of human erythrocytes by cobra venom factor; type: cell-based
Source text: as §1, §2, §3

[3] = system: late components of human complement (C3-C9); assay: Test Code 035 (C3-C9 inhibitor; C-Late), lysis of EAC 142; type: cell-based
Source text: as §1, §2, §3

T1 sequence (P09871 16-688): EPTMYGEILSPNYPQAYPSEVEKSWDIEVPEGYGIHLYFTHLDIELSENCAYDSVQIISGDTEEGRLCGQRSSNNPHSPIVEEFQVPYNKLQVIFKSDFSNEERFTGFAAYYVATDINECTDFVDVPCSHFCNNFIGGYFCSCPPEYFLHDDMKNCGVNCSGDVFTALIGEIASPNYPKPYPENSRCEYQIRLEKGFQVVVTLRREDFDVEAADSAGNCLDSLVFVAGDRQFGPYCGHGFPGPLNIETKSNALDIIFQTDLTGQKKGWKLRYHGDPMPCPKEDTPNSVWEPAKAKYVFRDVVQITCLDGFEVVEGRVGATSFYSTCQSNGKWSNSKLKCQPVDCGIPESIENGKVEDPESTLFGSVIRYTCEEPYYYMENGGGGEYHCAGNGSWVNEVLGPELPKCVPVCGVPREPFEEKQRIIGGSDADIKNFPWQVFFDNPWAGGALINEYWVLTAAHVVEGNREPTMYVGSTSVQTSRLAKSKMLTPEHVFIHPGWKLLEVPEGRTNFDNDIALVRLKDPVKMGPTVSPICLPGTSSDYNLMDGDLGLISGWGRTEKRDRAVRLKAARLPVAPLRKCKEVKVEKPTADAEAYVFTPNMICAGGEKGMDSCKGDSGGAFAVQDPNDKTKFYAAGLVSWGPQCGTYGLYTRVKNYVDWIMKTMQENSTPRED
T1 sequence (P00736 18-705 partner): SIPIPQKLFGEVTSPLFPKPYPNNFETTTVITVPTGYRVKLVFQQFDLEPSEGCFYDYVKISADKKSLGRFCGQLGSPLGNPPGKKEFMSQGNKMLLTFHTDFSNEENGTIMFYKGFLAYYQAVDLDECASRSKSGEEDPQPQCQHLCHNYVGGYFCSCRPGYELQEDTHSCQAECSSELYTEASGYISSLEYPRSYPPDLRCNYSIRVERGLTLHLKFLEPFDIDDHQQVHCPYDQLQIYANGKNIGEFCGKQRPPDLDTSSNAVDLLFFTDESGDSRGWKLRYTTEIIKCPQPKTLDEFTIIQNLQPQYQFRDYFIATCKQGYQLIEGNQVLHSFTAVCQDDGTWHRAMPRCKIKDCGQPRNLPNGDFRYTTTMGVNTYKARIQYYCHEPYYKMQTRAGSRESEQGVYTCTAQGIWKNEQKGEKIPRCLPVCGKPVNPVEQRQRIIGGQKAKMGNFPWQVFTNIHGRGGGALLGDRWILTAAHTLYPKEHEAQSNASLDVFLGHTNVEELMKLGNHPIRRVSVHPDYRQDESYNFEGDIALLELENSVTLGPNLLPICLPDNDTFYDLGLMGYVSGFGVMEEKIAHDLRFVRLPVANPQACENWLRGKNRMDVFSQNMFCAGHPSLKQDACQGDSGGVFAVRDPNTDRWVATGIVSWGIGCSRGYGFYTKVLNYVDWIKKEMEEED
T1 sequence (P02745 23-245 partner): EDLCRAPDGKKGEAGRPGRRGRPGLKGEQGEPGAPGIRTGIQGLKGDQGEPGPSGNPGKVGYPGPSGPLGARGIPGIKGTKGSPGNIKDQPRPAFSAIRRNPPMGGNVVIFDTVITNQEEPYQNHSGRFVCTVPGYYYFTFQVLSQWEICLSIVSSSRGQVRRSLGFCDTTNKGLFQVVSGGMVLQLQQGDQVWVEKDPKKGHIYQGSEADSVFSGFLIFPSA
T1 sequence (P02746 28-253 partner): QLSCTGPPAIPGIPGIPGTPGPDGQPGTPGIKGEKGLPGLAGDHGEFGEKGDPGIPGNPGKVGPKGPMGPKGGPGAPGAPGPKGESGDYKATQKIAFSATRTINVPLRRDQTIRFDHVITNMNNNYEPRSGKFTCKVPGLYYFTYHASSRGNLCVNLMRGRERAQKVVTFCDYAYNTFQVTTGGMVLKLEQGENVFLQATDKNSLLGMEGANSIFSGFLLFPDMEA
T1 sequence (P02747 29-245 partner): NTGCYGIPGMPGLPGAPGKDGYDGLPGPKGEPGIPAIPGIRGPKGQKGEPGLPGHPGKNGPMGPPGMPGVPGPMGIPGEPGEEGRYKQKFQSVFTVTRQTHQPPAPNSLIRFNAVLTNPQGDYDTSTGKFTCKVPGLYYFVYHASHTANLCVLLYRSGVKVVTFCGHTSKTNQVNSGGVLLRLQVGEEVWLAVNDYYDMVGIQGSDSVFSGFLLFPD

For O=S(=O)(O)OC[C@H]1O[C@@H](OC[C@H]2O[C@H](OC[C@H]3O[C@H](OS(=O)(=O)O)[C@H](OS(=O)(=O)O)[C@@H](OS(=O)(=O)O)[C@@H]3OS(=O)(=O)O)[C@H](OS(=O)(=O)O)[C@@H](OS(=O)(=O)O)[C@H]2OS(=O)(=O)O)[C@H](OS(=O)(=O)O)[C@@H](OS(=O)(=O)O)[C@@H]1O[C@@H]1O[C@H](COS(=O)(=O)O)[C@@H](OS(=O)(=O)O)[C@H](OS(=O)(=O)O)[C@H]1OS(=O)(=O)O [glc →1β,4 glc →1β,6 gal →1α,6 glc tetradicakis (H-sulfate), ] [Glc 1β,4 glc 1β,6 gal 1α,6 glc tetradecakis (H-sulfate), tetradecasalt with trimethylamine], the “C1 026* Wells” value [1] was “+9 Wells” and the “Shunt Inhibition 036* Wells” value [2] was “+4 Wells”.
For O=S(=O)(O)OC[C@H]1O[C@@H](OC[C@H]2O[C@H](OC[C@H]3O[C@H](OS(=O)(=O)O)[C@H](OS(=O)(=O)O)[C@@H](OS(=O)(=O)O)[C@@H]3OS(=O)(=O)O)[C@H](OS(=O)(=O)O)[C@@H](OS(=O)(=O)O)[C@H]2OS(=O)(=O)O)[C@H](OS(=O)(=O)O)[C@@H](OS(=O)(=O)O)[C@@H]1O[C@@H]1O[C@H](COS(=O)(=O)O)[C@@H](OS(=O)(=O)O)[C@H](OS(=O)(=O)O)[C@H]1OS(=O)(=O)O [glc →1β,4 glc →1β,6 gal →1α,6 glc tetradecakis (H-sulfate), ] [Glc 1β,4 glc 1β,6 gal 1α,6 glc tetradecakis (H-sulfate), tetradecasodium salt], the “C1 026* Wells” value [1] was “+9 Wells”.
For O=S(=O)(O)OC[C@H]1O[C@@H](OC[C@H]2O[C@H](OC[C@H]3O[C@H](OS(=O)(=O)O)[C@H](OS(=O)(=O)O)[C@@H](OS(=O)(=O)O)[C@@H]3OS(=O)(=O)O)[C@H](OS(=O)(=O)O)[C@@H](OS(=O)(=O)O)[C@H]2OS(=O)(=O)O)[C@H](OS(=O)(=O)O)[C@@H](OS(=O)(=O)O)[C@H]1OS(=O)(=O)O [gal →1β,6 gal →1α,6 glc undecakis -sulfate), undecasalt with] [Gal 1β,6 gal 1α,6 glc undecakis (H-sulfate), undecasalt with trimethylamine], the “C1 026* Wells” value [1] was “+9 Wells”.
O=S(=O)(O)OC[C@H]1O[C@@H](OC[C@H]2O[C@H](OC[C@H]3O[C@H](OS(=O)(=O)O)[C@H](OS(=O)(=O)O)[C@@H](OS(=O)(=O)O)[C@@H]3OS(=O)(=O)O)[C@H](OS(=O)(=O)O)[C@@H](OS(=O)(=O)O)[C@H]2OS(=O)(=O)O)[C@H](OS(=O)(=O)O)[C@@H](OS(=O)(=O)O)[C@H]1OS(=O)(=O)O [gal →1β,6 gal →1α,6 glc undecakis -sulfate), undecasodium sa] [Gal 1β,6 gal 1α,6 glc undecakis (H-sulfate), undecasodium salt] was tested, and the “C1 026* Wells” value [1] was “+9 Wells”.
In the case of O=S(=O)(O)OC[C@H]1O[C@@H](OC[C@H]2O[C@H](OC[C@H]3O[C@H](OS(=O)(=O)O)[C@H](OS(=O)(=O)O)[C@@H](OS(=O)(=O)O)[C@@H]3OS(=O)(=O)O)[C@H](OS(=O)(=O)O)[C@@H](OS(=O)(=O)O)[C@H]2OS(=O)(=O)O)[C@H](OS(=O)(=O)O)[C@@H](OS(=O)(=O)O)[C@@H]1O[C@H]1O[C@H](COS(=O)(=O)O)[C@@H](O[C@H]2O[C@H](COS(=O)(=O)O)[C@@H](OS(=O)(=O)O)[C@H](OS(=O)(=O)O)[C@H]2OS(=O)(=O)O)[C@H](OS(=O)(=O)O)[C@H]1OS(=O)(=O)O [(glc →1α,4)2 glc →1β,6 gal →1α,6 heptadecakis (H-sulfate), h] [(Glc 1α,4)2 glc 1β,6 gal 1α,6 glc heptadecakis (H-sulfate) heptadecasodium salt], the “C1 026* Wells” value [1] was “+9 Wells”, the “Shunt Inhibition 036* Wells” value [2] was “+6 Wells” and the “C-Late 035* Wells” value [3] was “+2 Wells”.
O=S(=O)(O)OC[C@H]1O[C@@H](OC[C@H]2O[C@H](OC[C@H]3OC(OS(=O)(=O)O)[C@H](OS(=O)(=O)O)[C@@H](OS(=O)(=O)O)[C@@H]3OS(=O)(=O)O)[C@H](OS(=O)(=O)O)[C@@H](OS(=O)(=O)O)[C@H]2OS(=O)(=O)O)[C@H](OS(=O)(=O)O)[C@@H](OS(=O)(=O)O)[C@@H]1O[C@H]1O[C@H](COS(=O)(=O)O)[C@@H](O[C@H]2O[C@H](COS(=O)(=O)O)[C@@H](O[C@H]3O[C@H](COS(=O)(=O)O)[C@@H](O[C@H]4O[C@H](COS(=O)(=O)O)[C@@H](O[C@H]5O[C@H](COS(=O)(=O)O)[C@@H](O[C@H]6O[C@H](COS(=O)(=O)O)[C@@H](OS(=O)(=O)O)[C@H](OS(=O)(=O)O)[C@H]6OS(=O)(=O)O)[C@H](OS(=O)(=O)O)[C@H]5OS(=O)(=O)O)[C@H](OS(=O)(=O)O)[C@H]4OS(=O)(=O)O)[C@H](OS(=O)(=O)O)[C@H]3OS(=O)(=O)O)[C@H](OS(=O)(=O)O)[C@H]2OS(=O)(=O)O)[C@H](OS(=O)(=O)O)[C@H]1OS(=O)(=O)O (stereo partly drawn) [(glc →1α,4)6 glc →1β,6 gal →1α,6 glc nonacosakis (H-sulfate)] [(Glc 1α,4)6 glc 1β,6 gal 1α,6 glc nonacosakis (H-sulfate) nonacosasalt with trimethylamine] was tested, and the “C1 026* Wells” value [1] was “+10 Wells”, the “Shunt Inhibition 036* Wells” value [2] was “+5 Wells” and the “C-Late 035* Wells” value [3] was “+1 Wells”.
In the case of O=S(=O)(O)OC[C@H]1O[C@H](OC[C@H]2OC(OS(=O)(=O)O)[C@H](OS(=O)(=O)O)[C@@H](OS(=O)(=O)O)[C@@H]2OS(=O)(=O)O)[C@H](OS(=O)(=O)O)[C@@H](OS(=O)(=O)O)[C@H]1OS(=O)(=O)O (stereo partly drawn) [Gal 1α,6 glc octakis (H-sulfate), octasodium salt], the “C1 026* Wells” value [1] was “+8 Wells”.
O=S(=O)(O)OC[C@H]1O[C@@H](OC[C@H]2O[C@H](OC[C@H]3OC(OS(=O)(=O)O)[C@H](OS(=O)(=O)O)[C@@H](OS(=O)(=O)O)[C@@H]3OS(=O)(=O)O)[C@H](OS(=O)(=O)O)[C@@H](OS(=O)(=O)O)[C@H]2OS(=O)(=O)O)[C@H](OS(=O)(=O)O)[C@@H](OS(=O)(=O)O)[C@@H]1O[C@H]1O[C@H](COS(=O)(=O)O)[C@@H](OS(=O)(=O)O)[C@H](OS(=O)(=O)O)[C@H]1OS(=O)(=O)O (stereo partly drawn) [glc →1α,4 glc →1β,6 gal →1α,6 glc tetradecakis (H-sulfate), ] [Glc 1α,4 glc 1β,6 gal 1α,6 glc tetradecakis (H-sulfate), tetradecasalt with trimethylamine] was tested, and the “C-Late 035* Wells” value [3] was “+1 Wells”.
O=S(=O)(O)OC[C@H]1O[C@@H](OC[C@H]2O[C@H](OC[C@H]3O[C@H](OS(=O)(=O)O)[C@H](OS(=O)(=O)O)[C@@H](OS(=O)(=O)O)[C@@H]3OS(=O)(=O)O)[C@H](OS(=O)(=O)O)[C@@H](OS(=O)(=O)O)[C@H]2OS(=O)(=O)O)[C@H](OS(=O)(=O)O)[C@@H](OS(=O)(=O)O)[C@@H]1O[C@H]1O[C@H](COS(=O)(=O)O)[C@@H](O[C@H]2O[C@H](COS(=O)(=O)O)[C@@H](OS(=O)(=O)O)[C@H](OS(=O)(=O)O)[C@H]2OS(=O)(=O)O)[C@H](OS(=O)(=O)O)[C@H]1OS(=O)(=O)O [(glc →1α,4) 2 glc →1β,6 gal →1α,6 heptadecakis (H-sulfate), ] [(Glc 1α,4)2 glc 1β,6 gal 1α,6 glc heptadecakis (H-sulfate) heptadecasalt with trimethylamine] was tested, and the “C1 026* Wells” value [1] was “+9 Wells” and the “C-Late 035* Wells” value [3] was “+1 Wells”.
